Reference: patent US8980848B2, “Flavonoid dimers and their use” (The Hong Kong Polytechnic University, priority 2010, dated 2015)

Assays:
[1] = Tumor cell line cytotoxicity of flavonoid dimers, LCC6MDR; type: cell-based, human; settings: human, LCC6MDR cells, IC50 of compound alone
Outline: (§1)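 LCC6, LCC6MDR and L929 cells seeded at 1×10^4 cells/well and exposed to graded doses of flavonoid dimers. Incubation 72 hrs at 37° C., 5% CO2. Read-out: % survivors.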

[2] = Tumor cell line cytotoxicity of flavonoid dimers, LCC6; type: cell-based, human; settings: human, LCC6 cells, IC50 of compound alone
Outline: as §1

[3] = Cytotoxicity of flavonoid dimers, L929 mouse fibroblast; type: cell-based; settings: mouse, L929 fibroblast cells, IC50 of compound alone, 72 hrs, mouse fibroblast
Outline: as §1

[4] = target: Pgp (LCC6MDR cells) (Homo sapiens, UniProt P08183); assay: Cell proliferation assay: Pgp-modulating activity, reversal of anticancer drug resistance in LCC6MDR cells; settings: for RF (Relative Fold), cpd at 0.5 μM: RF = (IC50 without modulator)/(IC50 with 0.5 μM modulator); for RF (Relative Fold), cpd at 0.5 μM / RF (Relative Fold), cpd at 1 μM: paclitaxel; for RF (Relative Fold), cpd at 0.5 μM / RF (Relative Fold), cpd at 1 μM / EC50: LCC6MDR; for RF (Relative Fold), cpd at 1 μM: RF = (IC50 without modulator)/(IC50 with 1.0 μM modulator); for EC50: EC50 of compounds for reversing anticancer drug resistance (nM); for Therapeutic index: IC50 of compounds for L929/EC50 of compounds for lowering paclitaxel drug resistance
Sequence of Pgp (LCC6MDR cells) (P08183 whole entry): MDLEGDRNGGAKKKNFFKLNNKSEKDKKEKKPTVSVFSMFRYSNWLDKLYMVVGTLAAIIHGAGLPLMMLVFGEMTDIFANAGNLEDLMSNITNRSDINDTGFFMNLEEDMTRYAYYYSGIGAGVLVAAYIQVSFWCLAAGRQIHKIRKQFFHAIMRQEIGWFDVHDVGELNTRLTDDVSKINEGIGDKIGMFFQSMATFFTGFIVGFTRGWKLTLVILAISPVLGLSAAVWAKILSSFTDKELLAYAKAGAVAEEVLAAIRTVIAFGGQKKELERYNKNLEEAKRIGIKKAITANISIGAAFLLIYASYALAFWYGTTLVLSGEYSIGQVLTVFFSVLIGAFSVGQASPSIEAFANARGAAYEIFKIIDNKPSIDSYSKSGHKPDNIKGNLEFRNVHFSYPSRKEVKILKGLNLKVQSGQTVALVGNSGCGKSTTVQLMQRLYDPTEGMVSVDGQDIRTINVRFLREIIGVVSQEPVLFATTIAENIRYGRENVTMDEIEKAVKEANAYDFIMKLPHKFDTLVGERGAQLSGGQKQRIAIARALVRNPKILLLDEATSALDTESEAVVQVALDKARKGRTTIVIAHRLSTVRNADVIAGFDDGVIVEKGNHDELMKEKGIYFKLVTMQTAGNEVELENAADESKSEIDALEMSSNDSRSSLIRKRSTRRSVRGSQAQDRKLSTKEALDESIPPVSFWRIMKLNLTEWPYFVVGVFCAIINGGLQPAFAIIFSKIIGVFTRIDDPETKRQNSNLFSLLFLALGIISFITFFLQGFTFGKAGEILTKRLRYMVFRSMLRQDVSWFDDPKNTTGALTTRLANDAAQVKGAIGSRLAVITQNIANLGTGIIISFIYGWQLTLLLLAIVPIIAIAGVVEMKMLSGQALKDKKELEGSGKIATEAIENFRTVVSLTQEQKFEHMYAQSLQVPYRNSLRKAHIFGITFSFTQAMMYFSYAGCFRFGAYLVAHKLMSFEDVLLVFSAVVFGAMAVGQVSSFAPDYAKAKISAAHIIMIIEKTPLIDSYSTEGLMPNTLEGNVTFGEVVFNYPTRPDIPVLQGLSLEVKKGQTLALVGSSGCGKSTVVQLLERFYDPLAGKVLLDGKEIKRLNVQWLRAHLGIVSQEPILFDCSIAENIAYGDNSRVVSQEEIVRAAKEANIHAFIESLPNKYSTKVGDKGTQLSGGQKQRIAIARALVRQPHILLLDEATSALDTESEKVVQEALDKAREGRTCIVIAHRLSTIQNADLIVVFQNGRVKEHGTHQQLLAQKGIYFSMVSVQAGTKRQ
Procedure: Cell Proliferation Assay. 6,000 cells of LCC6 or LCC6MDR and anticancer drugs (paclitaxel, vinblastine, vincristine, doxorubicin and mitoxantrone) were mixed with or without modulators to a final volume of 200 μL in each well of 96-well plates. […] The plates were then incubated for 5 days at 37° C. […] IC50 values were calculated from the dose-response curves of MTS assays (Prism 4.0).

[5] = system: PEM cells; assay: Cytotoxicity, primary mouse peritoneal elicited macrophage (PEM); type: cell-based
Procedure: (§2) (a) Mouse Macrophage Raw 264.7 and Primary Mouse PEM Cells. The cytotoxicity assay of reference antileishmanial compounds and the compounds of this invention was performed against mouse macrophage cell line, Raw 264.7 and primary mouse PEM cells in order to calculate the therapeutic index (IC50 value for cytotoxicity of the compounds divided by IC50 value for antileishmanial activity of the compounds). The cells were grown in supplemented DMEM media in an atmosphere of 95% air with 5% CO2 at 37° C. In brief, Raw264.7 cells and PEM cells were seeded into 96-well flat bottom microtiter plate at 1×10^4cells and 2×10^4 cells per well in a final volume of 100 μL media, respectively. A graded dose of flavonoid dimers or antileishmanials was added into wells. The plate was incubated at 37° C. for 72 hrs at the atmosphere 5% CO2 in the air. The % of survivors was determined.

[6] = system: Ld39 amastigotes; assay: In vitro anti-amastigote activity, Ld39 amastigotes in mouse PEM; settings: Leishmania donovani, in Mus musculus, 72 h, read-out: Ld39 (IC50, mM)
Procedure: Peritoneal elicited macrophages (PEM) from mouse were obtained as previously described. A round cover slip (12 mm in diameter) was placed into each well of 24-well culture plate. Mouse macrophages were resuspended in supplemented DMEM media containing 10% heat inactivated fetal bovine serum (v/v), 100 U/mL penicillin and 100 μg/mL streptomycin and seeded into each well at a cell density of 1×10^5 cells per 500 μL. Macrophages were allowed to attach overnight and the non-adherent cells were removed by gentle washing twice with unsupplemented DMEM media. […] Non-internalized promastigotes were removed by washing with unsupplemented DMEM media for two times. Infected macrophages were further incubated in 500 μL supplemented DMEM media in the presence or absence of flavonoid dimers or known antileishmanials for 72 hrs at 37° C. After incubation, the cover slips were stained with Giemsa and the amastigotes inside each macrophage (100 macrophages per treatment) were counted under microscope. The percentage of macrophages infected and number of amastigotes per 100 macrophages was enumerated.
The % of infected macrophage and the number of amastigotes per 100 macrophages were counted by staining with Giemsa.

[7] = system: LdAG83 promastigotes (wild type); assay: In vitro anti-promastigote activity, LdAG83; type: cell-based, Leishmania donovani; settings: Leishmania donovani, 72 h, read-out: Anti-promastigotes activity (IC50, μM) LdAG83
Procedure: (§3) Cell Lines and Cell Culture. Promastigotes of Leishmania donovani (wild type LdAG83, pentamidine-resistant LdAG83-PentR50, and SSG-resistant Ld39) and Leishmania major [MHOM/IL/67/JERICHO II (Lm50122), from ATCC] were used in this study.
(§4) In Vitro Anti-Promastigote Activity. The viability of promastigotes was determined by the Cell Titer 96° Aqueous Assay (Promega) that employs a tetrazolium compound (MTS, 2-(4,5-Dimethylthiazol-2-yl-)-5-[3-(carboxymethoxy)phenyl]-2-(4-sulfophenyl)-2H-tetrazolium) and electron coupling reagent, phenazine methosulfate (PMS).^7 Promastigotes were seeded into 96-well flat bottom microtiter plate at 1×10^5 cells per well in a final volume of 100 μL medium and incubated with a series concentration of synthetic flavonoid dimers or known antileishmanials. The parasites were incubated at 27° C. for 72 hrs. Fresh solution of 2 mg/mL MTS and 0.92 mg/mL PMS were prepared in a ratio of 20:1 (MTS:PMS). After 72 hrs incubation, 10 μL of MTS:PMS mixture was added into each well of microtiter plate. The plate was then incubated at 27° C. for 4 hrs for color development. After 4 hrs incubation, the OD values were determined at 490 nm using automatic microtiter plate reader (Bio-Rad).

[8] = system: Ld39 promastigotes (SSG-resistant); assay: In vitro anti-promastigote activity, Ld39; type: cell-based, Leishmania donovani; settings: Leishmania donovani, 72 h, read-out: Anti-promastigotes activity (IC50, μM) Ld39
Procedure: as §3, §4

[9] = system: Lm50122 promastigotes; assay: In vitro anti-promastigote activity, Lm50122; type: cell-based, Leishmania major; settings: Leishmania major, 72 h, read-out: Anti-promastigotes activity (IC50, μM) Lm50122
Procedure: as §3, §4

[10] = system: Raw264.7 cells; assay: Cytotoxicity, mouse macrophage Raw264.7; type: cell-based; settings: Mus musculus, RAW264.7, 72 h
Procedure: as §2

[11] = Mus musculus, Macrophage, Table 7, cytotoxicity
[12] = cytotoxicity, primary mouse macrophage, 72 hrs

melting point [°C] | EC50 ([4]; Paclitaxel) [nM] | SMILES | IC50 at 72 h [1] [µM] | IC50 at 72 h [2] [µM] | IC50 at 72 h [3] [µM] | RF (Relative Fold), cpd at 0.5 μM [4] | RF (Relative Fold), cpd at 1 μM [4] | Therapeutic index [4] | further results
71 to 72 | – | O=C(c1ccccc1)c1ccc(CN(CCOCCOc2ccc(-c3cc(=O)c4ccccc4o3)cc2)CCOCCOc2ccc(-c3cc(=O)c4ccccc4o3)cc2)cc1 [Compound 61, 1,13-Bis[4′-(4H-chromen-4-on-2-yl)phenyl]-7-(4-benzoylbenzyl)-1,4,10,13-tetraoxa-7-azamidecane] | > 100 | > 91 | > 100 | (1.9) | (30.0) | – | –
– | – | O=c1cc(-c2ccc(O)c(O)c2)oc2cc(O)cc(O)c12 [Luteolin, luteolin] | – | – | – | – | – | – | IC50 [5, 11]: 77.7 ± 7.7 µM; IC50 [5, 12]: 77.7 ± 7.7 µM; IC50 [6]: 0.0077 ± 0.0036 mM
– | – | O=c1c(O)c(-c2ccc(O)c(O)c2)oc2cc(O)cc(O)c12 [Quercetin, quercetin] | – | – | – | – | – | – | IC50 [5, 11]: > 100 µM; IC50 [5, 12]: > 100 µM; IC50 [6]: 0.006 ± 0.0011 mM
106 to 107 | 72 ± 21 | O=c1cc(-c2ccc(OCCOCCN(CCOCCOc3ccc(-c4cc(=O)c5ccccc5o4)cc3)Cc3ccc(-c4ccccc4)cc3)cc2)oc2ccccc12 [Compound 57, 1,13-Bis[4′-(4H-chromen-4-on-2-yl)phenyl]-7-(4-phenylbenzyl)-1,4,10,13-tetraoxa-7-azamidecane] | > 62 | > 99 | > 69 | (102.1) | (117.8) | >958.3 | EC50 ([4]; Daunorubicin): 76 ± 14 nM; EC50 ([4]; Doxorubicin): 94 ± 1 nM; EC50 ([4]; Mitoxantrone): 65 ± 19 nM; EC50 ([4]; Vinblasinte, vinblastine): 38 ± 10 nM; EC50 ([4]; Vincristine): 83 ± 12 nM
– | – | COC(=O)c1ccc(CN(CCOCCOc2ccc(-c3cc(=O)c4ccccc4o3)cc2)CCOCCOc2ccc(-c3cc(=O)c4ccccc4o3)cc2)cc1 [Compound 20, 1,13-Bis[4′-(4H-chromen-4-on-2-yl)phenyl]-N-(4-methoxycarbonylbenzyl)-1,4,10,13-tetraoxa-7-azamidecane] | 64.8 ± 14.1 | 33.3 ± 10.8 | 11.4 ± 4.4 | (2.1) | – | – | IC50 [7]: > 100 µM; IC50 [8]: > 100 µM; IC50 [9]: > 100 µM; IC50 [10]: 45.7 ± 19.1 µM
– | – | CS(=O)(=O)N(CCOCCOc1ccc(-c2cc(=O)c3ccccc3o2)cc1)CCOCCOc1ccc(-c2cc(=O)c3ccccc3o2)cc1 [Compound 24, 1,13-Bis[4′-(4H-chromen-4-on-2-yl)phenyl]-N-(methanesulfonyl)-1,4,10,13-tetraoxa-7-azamidecane] | 42.6 ± 5.4 | 27.5 ± 8.4 | 13.4 ± 3.9 | (12.8) | – | – | IC50 [7]: 0.5 µM; IC50 [8]: 1.5 µM; IC50 [10]: 96 ± 4 µM
72 to 74 | – | CN(C)c1cccc2c(S(=O)(=O)N(CCOCCOc3ccc(-c4cc(=O)c5ccccc5o4)cc3)CCOCCOc3ccc(-c4cc(=O)c5ccccc5o4)cc3)cccc12 [Compound 25b, 1,13-Bis[4′-(4H-chromen-4-on-2-yl)phenyl]-7-(dansyl)-1,4,10,13-tetraoxa-7-azamidecane] | > 100 | > 100 | – | (1.4) | – | – | –
81 to 82 | 177 ± 14 | O=c1cc(-c2ccc(OCCOCCN(CCOCCOc3ccc(-c4cc(=O)c5ccccc5o4)cc3)Cc3ccc(Cl)cc3)cc2)oc2ccccc12 [Compound 49, 1,13-Bis[4′-(4H-chromen-4-on-2-yl)phenyl]-7-(4-chlorobenzyl)-1,4,10,13-tetraoxa-7-azamidecane] | > 100 | > 100 | > 78 | (41.4) | (95.7) | >440.7 | –
96 to 97 | – | O=c1cc(-c2ccc(OCCOCCN(CCOCCOc3ccc(-c4cc(=O)c5ccccc5o4)cc3)Cc3cccc4ccccc34)cc2)oc2ccccc12 [Compound 59, 1,13-Bis[4′-(4H-chromen-4-on-2-yl)phenyl]-7-(1-naphthalenylmethyl)-1,4,10,13-tetraoxa-7-azamidecane] | > 100 | > 100 | > 100 | (2.2) | (80.6) | – | –
119 to 122 | 255 ± 5 | O=c1cc(-c2ccc(OCCOCCN(CCOCCOc3ccc(-c4cc(=O)c5ccccc5o4)cc3)Cc3ccc(F)cc3)cc2)oc2ccccc12 [Compound 34, 1,13-Bis[4′-(4H-chromen-4-on-2-yl)phenyl]-7-(4-fluorobenzyl)-1,4,10,13-tetraoxa-7-azamidecane] | > 83 | > 100 | 19.7 | (31.2) | – | 77.3 | –
69 to 70 | 204 ± 20 | O=c1cc(-c2ccc(OCCOCCN(CCOCCOc3ccc(-c4cc(=O)c5ccccc5o4)cc3)Cc3ccc4c(c3)OCO4)cc2)oc2ccccc12 [Compound 42e, 1,13-Bis[4′-(4H-chromen-4-on-2-yl)phenyl]-7-(5-piperonyl)-1,4,10,13-tetraoxa-7-azamidecane] | > 100 | > 100 | > 100 | (31.2) | (117.8) | >490.2 | –
96 to 98 | – | O=c1cc(-c2ccc(OCCOCCN(CCOCCOc3ccc(-c4cc(=O)c5ccccc5o4)cc3)Cc3ccc(F)c(F)c3)cc2)oc2ccccc12 [Compound 38, 1,13-Bis[4′-(4H-chromen-4-on-2-yl)phenyl]-7-(3,4-difluorobenzyl)-1,4,10,13-tetraoxa-7-azamidecane] | 33.6 ± 4.3 | 32.5 ± 11 | 42.2 ± 2.1 | (49.3) | – | – | –

SMILES | melting point [°C] | EC50 ([4]; Paclitaxel) [nM] | IC50 at 72 h [1] [µM] | IC50 at 72 h [2] [µM] | IC50 at 72 h [3] [µM] | RF (Relative Fold), cpd at 0.5 μM [4] | RF (Relative Fold), cpd at 1 μM [4] | Therapeutic index [4] | further results
O=c1cc(-c2ccc(OCCOCCN(CCCc3ccccc3)CCOCCOc3ccc(-c4cc(=O)c5ccccc5o4)cc3)cc2)oc2ccccc12 [Compound 26, 1,13-Bis[4′-(4H-chromen-4-on-2-yl)phenyl]-N-(3-phenylpropyl)-1,4,10,13-tetraoxa-7-azamidecane] | – | 250 | > 100 | > 100 | 9.5 | (12.5) | – | 38.0 | IC50 [7]: 8.9 µM; IC50 [8]: 18.4 µM; IC50 [10]: 85 µM
